Data: US9718790B2, “Triazine derivative and pharmaceutical composition having an analgesic activity comprising the same” (SHIONOGI & CO., LTD., priority 2010, dated 2017)

target: human P2X3 receptor (Homo sapiens (Human), UniProt P56373); assay: Evaluation of human P2X3 receptor inhibitory activity (Fluo-3 calcium fluorescence, FDSS 3000, ATP stimulation); type: cell-based; settings: C6BU-1 cells stably expressing human P2X3 receptor;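 also: stimulus was 50 nM ATP with fluorescence followed for 3 min, and the response per well was peak post-ATP fluorescence divided by the reading at measurement start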
Sequence (P56373 whole entry): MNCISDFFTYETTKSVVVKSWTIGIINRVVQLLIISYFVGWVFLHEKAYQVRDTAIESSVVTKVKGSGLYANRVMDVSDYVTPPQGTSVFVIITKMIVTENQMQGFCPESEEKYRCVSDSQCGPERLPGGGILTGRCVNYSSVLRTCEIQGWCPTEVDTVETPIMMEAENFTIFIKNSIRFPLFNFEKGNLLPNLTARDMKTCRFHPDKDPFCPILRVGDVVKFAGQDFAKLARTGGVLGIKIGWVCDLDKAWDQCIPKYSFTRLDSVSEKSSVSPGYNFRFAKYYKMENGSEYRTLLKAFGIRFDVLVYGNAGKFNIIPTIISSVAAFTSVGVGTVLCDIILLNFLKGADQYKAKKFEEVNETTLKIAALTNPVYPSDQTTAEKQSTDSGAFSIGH

Structure (SMILES)	IC50 [µM]
Cn1c(=O)[nH]/c(=N\c2ccc(Oc3ccnc(C(=O)O)c3)cc2)n(Cc2ccc(Cl)cc2)c1=O [Compound I-2099]	0.008
CCn1c(=O)[nH]/c(=N\c2ccc(Oc3ccc(C(=O)OC)nc3)cc2)n(Cc2ccc(C)cc2)c1=O [Compound I-2106]	0.002
COc1cc(/N=c2\[nH]c(=O)n(CCC(=O)O)c(=O)n2Cc2ccc(Cl)cc2)ccc1CC(C)C [Compound I-1355]	0.177
CCCc1nc2ccc(/N=c3\[nH]c(=O)n(C[C@H](C)C(=O)OC)c(=O)n3Cc3ccc(Cl)cc3)cc2o1 [Compound I-1327]	0.073
C[C@@H](Cn1c(=O)[nH]/c(=N\c2cccc(C(F)(F)F)c2)n(Cc2ccc(Cl)cc2)c1=O)C(=O)O [Compound I-0628]	0.061
Cc1ccc(Oc2ccc(/N=c3\[nH]c(=O)n([C@@H](C)[C@@H](C)C(=O)O)c(=O)n3Cc3ccc(Cl)cc3)cc2)cn1 [Compound I-1388]	0.009
COc1cc(/N=c2\[nH]c(=O)n(CC(C)(C)C(=O)O)c(=O)n2Cc2ccc(Cl)cc2)ccc1OC(C)C [Compound I-1265]	0.022
C[C@@H](C(=O)O)[C@H](C)n1c(=O)[nH]/c(=N\c2ccc(Oc3cccnc3)cc2)n(Cc2ccc(Cl)cc2)c1=O [Compound I-1390]	0.015
CC(C)Oc1cccc(Cn2c(=O)n(Cc3ccc(Cl)cc3)c(=O)n(C(C)C)c2=O)c1 [Compound I-1292]	0.445
Cc1cc(/N=c2\[nH]c(=O)n(CC3(C(=O)NCCO)CC3)c(=O)n2Cc2ccc(Cl)cc2)ccc1OC(C)C [Compound I-0704]	0.023
O=C(O)c1cccc(Oc2ccc(/N=c3\[nH]c(=O)[nH]c(=O)n3Cc3ccc(Cl)cc3)cc2)c1 [Compound I-1923]	0.084
COC(=O)[C@@H](C)[C@@H](C)n1c(=O)[nH]/c(=N\c2ccc(N3CCCCC3)cc2)n(Cc2ccc(Cl)cc2)c1=O [Compound I-1454]	0.023
CC(C)Oc1ccc(/N=c2\[nH]c(OCC(N)=O)nc(=O)n2Cc2ccc(Cl)cc2)cc1F [Compound I-0587]	0.299
CCn1c(=O)[nH]/c(=N\c2ccc(Oc3ccnc(O)n3)cc2)n(Cc2ccc(Cl)cc2)c1=O [Compound I-2016]	0.005
CCn1c(=O)[nH]/c(=N\c2ccc(Oc3ccc(C(=O)O)o3)cc2)n(Cc2ccc(Cl)cc2)c1=O [Compound I-2152]	0.041
CCOc1ccc(/N=c2\[nH]c(=O)n(C[C@H](C)C(=O)O)c(=O)n2Cc2ccc(C)cc2)cc1F [Compound I-0610]	0.035
CCn1c(=O)[nH]/c(=N\c2ccc(Oc3ccc(C(N)=O)nc3)cc2)n(Cc2ccc(Cl)cc2)c1=O [Compound I-2119]	0.001
C[C@@H](Cn1c(=O)[nH]/c(=N\c2ccc3c(c2)CCO3)n(Cc2ccc(Cl)cc2)c1=O)C(=O)O [Compound I-0773]	0.79
CC(C)Oc1ccc(/N=c2\[nH]c(=O)n(CCC(=O)NO)c(=O)n2Cc2ccc(Cl)cc2)cc1F [Compound I-0603]	0.012
CC(C)Oc1ccc(/N=c2\[nH]c(=O)n(C(C)(C)CC(=O)O)c(=O)n2Cc2ccc(Cl)cc2)cc1Cl [Compound I-0817]	0.027
CCn1c(=O)[nH]/c(=N\c2ccc(Oc3ccc(C(=O)O)nc3)cc2)n(Cc2ccc(Cl)cc2)c1=O [Compound I-2115]	0.018
O=C(O)CCn1c(=O)[nH]/c(=N\c2ccc(Oc3cncc(F)c3)cc2)n(Cc2ccc(Cl)cc2)c1=O [Compound I-1412]	0.011
COC(=O)[C@@H](C)Cn1c(=O)[nH]/c(=N\c2ccc(OCC(C)C)cc2)n(Cc2ccc(Cl)cc2)c1=O [Compound I-0749]	0.027
CC(C)Oc1ccc(/N=c2\[nH]c(=O)n(Cc3ncn[nH]3)c(=O)n2Cc2ccc(Cl)cc2)cc1F [Compound I-0679]	0.032
CCOC(=O)c1cc(Oc2ccc(/N=c3\[nH]c(=O)n(CC)c(=O)n3Cc3ccc(Cl)cc3)cc2)[nH]n1 [Compound I-2192]	0.008
Cc1cc(/N=c2\[nH]c(=O)n(CCC(=O)O)c(=O)n2Cc2ccc(Cl)cc2)ccc1OC1CCC1 [Compound I-1407]	0.036

same assay, conditions: C6BU-1 cells stably expressing human P2X3 receptor, Fluo-3 fluorescence, FDSS 3000

Structure (SMILES)	IC50 [µM]
CCn1c(=O)[nH]/c(=N\c2ccc(Oc3ccnc(O)c3)cc2)n(Cc2ccc(Cl)cc2)c1=O [Compound I-1621]	0.004
CCOc1ccc(/N=c2\[nH]c(=O)n(CC3COC(C)(C)OC3)c(=O)n2Cc2ccc(Cl)cc2)cc1Cl [Compound I-1886]	0.003
CCSc1ccc(/N=c2\[nH]c(=O)n(C[C@H](C)C(=O)OC)c(=O)n2Cc2ccc(Cl)cc2)cc1C [Compound I-1040]	0.128
C[C@@H](C(=O)O)[C@H](C)n1c(=O)[nH]/c(=N\c2ccc3c(c2)CCC(=O)N3)n(Cc2ccc(Cl)cc2)c1=O [Compound I-1819]	0.873
CC(C)Cn1c(=O)oc2cc(Nc3nc(=O)n(C(C)C)c(=O)n3Cc3ccc(Cl)cc3)ccc21 [Compound I-0268]	0.861
C#Cc1ccc(Cn2c(=O)n(C[C@H](C)C(=O)OC)c(=O)[nH]/c2=N\c2ccc(OC(C)C)c(C)c2)cc1 [Compound I-0945]	0.173
CCC[C@H](C)Oc1ccc(/N=c2\[nH]c(=O)n(CCC(=O)O)c(=O)n2Cc2ccc(C)cc2)cc1 [Compound I-1067]	0.093
CCN(c1ccc(/N=c2\[nH]c(=O)n(C[C@H](C)C(=O)O)c(=O)n2Cc2ccc(Cl)cc2)cc1)C(C)C [Compound I-0963]	0.662
CCc1oc2ccc(/N=c3\[nH]c(=O)n(CCCC(=O)OC)c(=O)n3Cc3ccc(Cl)cc3)cc2c1C [Compound I-1700]	0.012

same assay, conditions: human P2X3 receptor, Test Example 1

Structure (SMILES)	IC50 [µM]
CCn1c(=O)[nH]/c(=N\c2cccc(Oc3cccc(C#N)n3)c2)n(Cc2ccc(Cl)cc2)c1=O [Compound I-2591]	0.051
CCOC(=O)Cn1c(=O)[nH]/c(=N\c2ccc(Oc3ccon3)c(F)c2)n(Cc2ccc(Cl)cc2)c1=O [Compound I-2578]	0.006
COC(=O)[C@@H](C)Cn1c(=O)[nH]/c(=N\c2ccc(C(C)C)c(Cl)c2)n(Cc2ccc(C)cc2)c1=O [Compound I-1493]	0.444
Cc1ccc(Cn2c(=O)n(C[C@H](C)C(=O)O)c(=O)[nH]/c2=N\c2ccc(C(C)C)c(Cl)c2)cc1 [Compound I-1494]	0.571
CC1(C)OC[C@H](Cn2c(=O)[nH]/c(=N\c3ccc(Oc4ccon4)cc3)n(Cc3ccc(Cl)cc3)c2=O)O1 [Compound I-2289]	< 0.004
Cc1cc(/N=c2\[nH]c(=O)n(C[C@H](C)C(=O)O)c(=O)n2Cc2ccc(Cl)cc2)ccc1OCC(C)C [Compound I-0835]	0.078
CNC(=O)Cn1c(=O)[nH]/c(=N\c2ccc(Oc3ccon3)cc2)n(Cc2ccc(Cl)cc2)c1=O [Compound I-2590]	0.017
CCOC(=O)CCCn1c(=O)[nH]/c(=N\c2ccc(OCC)c(Cl)c2)n(Cc2ccc(C)cc2)c1=O [Compound I-0862]	0.01
Cc1cc(/N=c2\[nH]c(=O)n([C@H]3CC[C@@H](C(=O)O)CC3)c(=O)n2Cc2ccc(Cl)cc2)ccc1OC(C)C [Compound I-0851]	0.024
O=C(Cn1c(=O)[nH]/c(=N\c2ccc(Oc3ccon3)cc2)n(Cc2ccc(Cl)cc2)c1=O)NCCO [Compound I-2680]	0.012
CCn1c(=O)[nH]/c(=N\c2ccc(Oc3ccc(C(=O)OC)nc3)cc2)n(Cc2ccc(Cl)cn2)c1=O [Compound I-2275]	0.01
CCOCc1ccc(/N=c2\[nH]c(=O)n(C[C@H](C)C(=O)OC)c(=O)n2Cc2ccc(C)cc2)cc1Cl [Compound I-1498]	0.022
O=c1[nH]/c(=N\c2ccc(Oc3nccs3)cc2)n(Cc2ccc(Cl)cc2)c(=O)n1C(CO)CO [Compound I-2541]	0.118
CCn1c(=O)[nH]/c(=N\c2ccc(Oc3ccc(C(=O)O)cn3)cc2)n(Cc2ccc(C)cc2)c1=O [Compound I-2400]	0.006
Cc1cnc(Oc2ccc(/N=c3\[nH]c(=O)n(CC(O)CO)c(=O)n3Cc3ccc(Cl)cc3)cc2)s1 (centres unmarked) [Compound I-2456]	0.008
COC(=O)[C@@H](C)Cn1c(=O)[nH]/c(=N\c2ccc(-c3noc(C)n3)cc2)n(Cc2ccc(Cl)cc2)c1=O [Compound I-1529]	0.026
C=C(C)c1ccc(/N=c2\[nH]c(=O)n(C[C@H](C)C(=O)OC)c(=O)n2Cc2ccc(C)cc2)cc1Cl [Compound I-1491]	0.284
CC[C@@H](C)n1c(=O)[nH]/c(=N\c2ccc(Oc3cncc(C(=O)O)c3)cc2)n(Cc2ccc(Cl)cc2)c1=O [Compound I-2483]	0.008
CCn1c(=O)[nH]/c(=N\c2ccc(Oc3ccc(NCC(=O)NC)nc3)cc2)n(Cc2ccc(Cl)cc2)c1=O [Compound I-2626]	0.005
O=c1[nH]/c(=N\c2ccc(Oc3nccs3)cc2)n(Cc2ccc(Cl)cc2)c(=O)n1C[C@H](O)CO [Compound I-2294]	0.005
CC[C@@H](C)Oc1ccc(/N=c2\[nH]c(=O)n(C[C@H](C)C(=O)O)c(=O)n2Cc2ccc(C)cc2)cc1 [Compound I-0854]	0.032
N#Cc1ccc(Oc2ccc(/N=c3\[nH]c(=O)n(C[C@@H](O)CO)c(=O)n3Cc3ccc(Cl)cc3)cc2)cc1 [Compound I-2560]	0.005
CCn1c(=O)[nH]/c(=N\c2ccc(Oc3ccnc(NCC(N)=O)c3)cc2)n(Cc2ccc(Cl)cc2)c1=O [Compound I-2554]	0.007
CCn1c(=O)[nH]/c(=N\c2ccc(Sc3ccc(C(=O)OC)cc3)cc2)n(Cc2ccc(Cl)cc2)c1=O [Compound I-2597]	0.215
O=c1[nH]/c(=N\c2ccc(Oc3ncccc3F)cc2)n(Cc2ccc(Cl)cc2)c(=O)n1CC(CO)CO [Compound I-2706]	0.006
CCn1c(=O)[nH]/c(=N\c2ccc(Oc3ccnc(NCC(=O)O)c3)cc2)n(Cc2ccc(Cl)cc2)c1=O [Compound I-2556]	0.005
Cc1nsc(Oc2ccc(/N=c3\[nH]c(=O)n(CCO)c(=O)n3Cc3ccc(Cl)cc3)cc2)n1 [Compound I-2575]	0.006
O=c1[nH]/c(=N\c2ccc(Oc3ccon3)cc2)n(Cc2ccc(Cl)cc2)c(=O)n1CCCO [Compound I-2358]	0.006
O=c1[nH]/c(=N\c2ccc(Oc3nccs3)cc2)n(Cc2ccc(Cl)cc2)c(=O)n1CC(O)CO (centres unmarked) [Compound I-2448]	0.011
Cn1c(=O)[nH]/c(=N\c2ccc(Oc3ccc(C(N)=O)cn3)cc2)n(Cc2ccc(Cl)cc2)c1=O [Compound I-2407]	0.009
